According to paper PMC12067444, “Synthesis and Pharmacological Characterization of Novel Peripheral Cannabinoid-1 Receptor Blockers Based on a Tricyclic Scaffold” (Journal of Medicinal Chemistry, 2025):
Like-named read-outs stand apart in the source and are kept apart here.

Legend:
[1] = Tissue distribution after chronic oral administration in diet-induced obese mice; assay type: in vivo; conditions: C57Bl/6J, mouse, brain; 1 mg/kg PO for 24 days, DIO mice, 24 h after last dose; read-out: brain concentration after chronic treatment
Method: Tissue distribution after chronic administration was conducted similarly, except tissue collection was performed 24 h after the last drug administration and analyzed in the same manner as previously described.
Supplementary F igure 2. BNS808 biodistribution and pharm acokinet ics aft er chronic P O adm inist rat ion. The accumulation of BNS808 in organs/plasma was evaluated by analyzing the BNS808 levels in the plasma, brain, and liver post-chronic administration of 1 mg/kg PO for 24 days in diet-induced obese mice. Data r epr esent the mean ± SE M of 4 mice per gr oup.
(1 picture or pasted object on this page, not shown here)

[2] = Tissue distribution after acute oral administration; assay type: in vivo, mouse; conditions: for Kp at 1 h: male, C57Bl/6J, mouse, in vivo, 1 mg/kg PO, 1 h post-acute administration
Method: Male C57Bl/6J mice aged 7–9 weeks (3–4 mice per compound) were fasted overnight before administering each test compound. The compounds were accurately weighed and mixed with an appropriate vehicle to prepare a clear oral solution. The formulations were freshly prepared on the dosing day, and the mice were administered the compound via oral gavage within 4 h of formulation preparation. 1, 2, 4, and 8 h after compound administration, the mice were euthanized, and approximately 200 μL of blood was collected via cardiac puncture for plasma preparation. Brain and liver tissues were harvested and processed for analysis. Sample analysis was performed using LC-MS/MS, as described in detail in the SI. […]
calculated using the equation:
Lucif er yellow = VV bbbbbbbbbbbbbbbbbbbb ×RR FFFF bbbbbbbbbbbbbbbbbbbb ×100 […]
Measurements of BNS808 using LC-MS/MS. MS/MS analyses were conducted using a Sciex QTRAP® 6500+ mass spectrometer (Framingham, MA, USA). Air was […]
Infinity 1031 nitrogen generator (Peak Scientific, Inchinnan, Scotland). Purified air […]
generator to ensure a continuous and stable air supply.

[3] = test system: diet-induced obese C57Bl/6J mice; experiment: Chronic treatment of diet-induced obese (DIO) mice; assay type: in vivo, mouse; conditions: vs vehicle
Method: To induce diet-induced obesity, the mice were fed a high-fat diet (HFD) containing 60% of calories from fat, 20% from protein, and 20% carbohydrates (Research Diet, D12492) for 16 weeks. HFD-fed obese mice were administered either vehicle or BNS808 (in SEDDs) orally at 1 mg/kg (dosing volume of 1 mL/kg) for 24 days. Daily monitoring of body weight was conducted throughout the experimental period. Total body fat and lean masses were assessed using the EchoMRI-100H (Echo Medical Systems LLC, Houston, TX, USA). At the end of week 20, mice were euthanized via cervical dislocation under anesthesia. Various tissues, including the kidneys, brain, liver, fat pads, and muscles, were harvested and snap-frozen or fixed in buffered 4% formalin. Trunk blood samples were collected for biochemical parameters analysis. […]

[4] = Stability in simulated intestinal fluid (SIF); assay type: in vitro ADME
C57BL/6J mice = experiment: CB1R agonist (HU210)-induced hypomotility; assay type: in vivo, mouse; conditions: 1 or 10 mg/kg PO; HU210 30 μg/kg IP; 4 h
Method: The activity profiles of the mice were evaluated using the Promethion High-Definition Behavioral Phenotyping System (Sable Instruments, Inc., Las Vegas, NV, USA). MetaScreen software version 2.2.18.0 was employed for data acquisition and instrument control, while ExpeData version 1.8.4 was used for processing raw data. An analysis script detailing all aspects of the data transformation was utilized. Mice with unrestricted access to food and water were subjected to a standard 12 h light/12 h dark cycle, comprising a 16-h acclimation period followed by 24 h of sampling. Ambulatory activity and position were concurrently quantified by the number of disruptions of the infrared beams in three dimensions (XYZ) with a beam spacing of 0.25 cm.
The objective of this experiment was to evaluate the capability of BNS808 and rimonabant (utilized as a positive control) in inhibiting hypomotility induced by a CB1R agonist (HU210). Male wild-type C57BL/6J mice were administered a single dose of either the vehicle, rimonabant (10 mg/kg, PO), or BNS808 (1 or 10 mg/kg, PO). Thirty minutes following this administration, the mice received a single dose of HU210 (30 μg/kg, IP). The locomotor activity was quantified by assessing the disruptions of infrared beams in two dimensions for 4 h.

O=S(=O)(NC1CCCOc2c1nn(-c1ccccc1Cl)c2-c1ccc(Cl)cc1)c1ccc(Cl)cc1 (stereo not drawn) [BNS808, 4-chloro-N-[2-(2-chlorophenyl)-3-(4-chlorophenyl)-5,6,7,8-tetrahydrooxepino[3,2-c]pyrazol-8-yl]benzenesulfonamide]
concentration at 24 h [1]: ~20 ng/g
liver concentration ([2]; 1 mg/kg PO acute, time point not stated): ~200 ng/g
brain concentration, average over time points ([2]; 1 mg/kg PO single acute dose, lean C57Bl/6 mice, 1, 2, 4, 8 h): 13.7 ng/g
Kp at 1 h ([2]; read-out: brain-to-plasma (B/P) ratio): 0.18
Kp at 1 h ([2]; read-out: liver/plasma (L/P) ratio): 3.62
body weight ([3]; 1 mg/kg/day PO (in SEDDs) for 24 days): reduced body weight
fasting blood glucose ([3]; 1 mg/kg/day PO for 24 days): reduced the glucose levels in fasting conditions
glucose homeostasis (ipGTT) ([3]; 1 mg/kg/day PO for 24 days): trend toward substantial effects
lean body mass (EchoMRI) ([3]; 1 mg/kg/day PO for 24 days): significant increase in lean body mass
total body fat (EchoMRI) ([3]; 1 mg/kg/day PO for 24 days): reduction in total body fat
HDL levels ([3]; 1 mg/kg/day for 24 days): without affecting HDL levels
HDL/LDL ratio ([3]; 1 mg/kg/day for 24 days): increased HDL/LDL ratio
LDL levels ([3]; 1 mg/kg/day for 24 days): reduced LDL levels
hepatic steatosis and hepatocellular damage (histology) ([3]; 1 mg/kg/day for 24 days): reversing hepatic steatosis and hepatocellular damage
liver enzymes (ALT, AST, ALP) ([3]; 1 mg/kg/day for 24 days): significant reduction
liver triglyceride content ([3]; 1 mg/kg/day for 24 days): significant reduction in liver triglyceride content
total cholesterol ([3]; 1 mg/kg/day for 24 days): reduced total cholesterol
triglycerides levels (serum) ([3]; 1 mg/kg/day for 24 days): reduced
amount in SIF with pancreatin ([4]; 0 h): 2.972 mg
amount in SIF, no pancreatin ([4]; 0 h): 3.257 mg
Initial amount (%) in SIF with pancreatin ([4]; 1 h): 102%
Initial amount (%) in SIF, no pancreatin ([4]; 1 h): 101%
amount in SIF with pancreatin ([4]; 1 h): 3.023 mg
amount in SIF, no pancreatin ([4]; 1 h): 3.277 mg
Initial amount (%) in SIF with pancreatin ([4]; 3 h): 101%
Initial amount (%) in SIF, no pancreatin ([4]; 3 h): 100%
amount in SIF with pancreatin ([4]; 3 h): 3.0009 mg
amount in SIF, no pancreatin ([4]; 3 h): 3.266 mg
Stability in SIF ([4]; with and without pancreatin): Stable
antagonism of HU-210-induced hypoactivity (C57BL/6J mice): unable to antagonize the hypoactivity mediated by HU-210
